Measured values from patent US10919852B2, “Immunomodulator compounds” (CHEMOCENTRYX, INC., priority 2017, dated 2021).

What follows are molecules tested against human PD-L1 / Human PD-1 (Homo sapiens (Human), UniProt Q9NZQ7) (assay: Enzyme-Linked Immunosorbent Assay (ELISA), PD-1/PD-L1 binding). Conditions: plate-coated human PD-L1, biotinylated human PD-1.
In short: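 Compound dilutions (1:5 series) competed with 0.3 μg/mL biotin-labelled human PD-1 for PD-L1 immobilised at […], for 1 h at 37 °C. Read-out was A450 after streptavidin-HRP and a 20 min TMB reaction, stopped with 2 N H2SO4.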

Sequence of human PD-L1 / Human PD-1 (Q9NZQ7 19-239): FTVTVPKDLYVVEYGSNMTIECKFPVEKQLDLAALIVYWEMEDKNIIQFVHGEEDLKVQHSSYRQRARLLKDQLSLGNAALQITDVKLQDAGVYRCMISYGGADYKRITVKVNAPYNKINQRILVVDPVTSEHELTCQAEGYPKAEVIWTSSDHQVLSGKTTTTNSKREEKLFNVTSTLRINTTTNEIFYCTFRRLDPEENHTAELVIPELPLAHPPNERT

SMILES	IC50
Cc1c(OCCCN2CCC(O)CC2)cccc1-c1cccc2c1CC[C@@H]2Oc1cc(OCc2cc(C#N)cc(C#N)c2)c(CN[C@@H](CO)C(=O)O)cc1Cl	< 5 nM
Cc1c(OCCCN2CCC(O)CC2)cccc1-c1cccc2c1CC[C@@H]2Oc1cc(OCc2cc(C#N)cc(C#N)c2)c(CN[C@H](C(=O)O)[C@@H](C)O)cc1Cl	< 5 nM
Cc1c(OCCCN2CCC(O)CC2)cccc1-c1cccc2c1CC[C@@H]2Oc1cc(OCc2cc(C#N)cc(C#N)c2)c(CN[C@@H]2CCCC[C@@H]2O)cc1Cl	< 5 nM
Cc1c(OCCCN2CCC[C@H]2CO)cccc1-c1cccc2c1CC[C@@H]2Oc1cc(OCc2cncc(C#N)c2)c(CN[C@H](C(=O)O)[C@@H](C)O)cc1Cl	< 5 nM
Cc1c(OCCCN[C@@H]2CCCC[C@@H]2O)cccc1-c1cccc2c1CC[C@@H]2Oc1cc(OCc2cncc(C#N)c2)c(CN[C@H](C(=O)O)[C@@H](C)O)cc1Cl	< 5 nM
COc1cc(O[C@H]2CCc3c(-c4cccc(OCCCN5CCC(F)CC5)c4C)cccc32)c(Cl)cc1CN[C@H]1CCC(=O)NC1	5 to 500 nM
COc1cc(O[C@H]2CCc3c(-c4cccc(OCCCN5CCC(C)(F)CC5)c4C)cccc32)c(Cl)cc1CN[C@H]1CCC(=O)NC1	5 to 500 nM
Cc1c(OCCCN2CCCCC2(C)C)cccc1-c1cccc2c1CC[C@@H]2Oc1cc(OCc2cc(C#N)cc(C#N)c2)c(CN[C@H]2CCC(=O)NC2)cc1Cl	5 to 500 nM
Cc1c(OCCCN2CCCC2C(C)(C)C)cccc1-c1cccc2c1CC[C@@H]2Oc1cc(OCc2cc(C#N)cc(C#N)c2)c(CN[C@H]2CCC(=O)NC2)cc1Cl (stereo partly shown)	5 to 500 nM
CN1CCC(COc2cccc(-c3cccc4c3CC[C@@H]4Oc3cc(OCc4cncc(C#N)c4)c(CN[C@H]4CCC(=O)NC4)cc3Cl)c2Cl)C1 (stereo partly shown)	5 to 500 nM
Cc1c(OCCCN2CC(C)(F)C2)cccc1-c1cccc2c1CC[C@@H]2Oc1cc(OCc2cc(C#N)cc(C#N)c2)c(CNC[C@H]2CCC(=O)N2)cc1Cl	5 to 500 nM
N#Cc1cncc(COc2cc(O[C@H]3CCc4c(-c5cccc(OCCCN6CCC(F)CC6)c5Cl)cccc43)c(Cl)cc2CN2CC(C(=O)O)C2)c1	< 5 nM
Cc1c(OCCCN2CC(C)(F)C2)cccc1-c1cccc2c1CC[C@@H]2Oc1cc(OCc2cc(C#N)cc(C#N)c2)c(CN[C@H]2CCC(=O)NC2)cc1Cl	5 to 500 nM
Cc1c(OCCCN2CC(C)(C)C2)cccc1-c1cccc2c1CC[C@@H]2Oc1cc(OCc2cc(C#N)cc(C#N)c2)c(CN[C@H]2CCC(=O)NC2)cc1Cl	< 5 nM
CCOc1cc(O[C@@H]2c3cccc(-c4cccc(OCCCN5CCC(C)(F)CC5)c4C)c3C[C@@H]2F)c(Cl)cc1CN[C@H](C(=O)NS(C)(=O)=O)[C@@H](C)O	5 to 500 nM
Cc1c(OCCCN2CCC(F)CC2)cccc1-c1cccc2c1CC[C@@H]2Oc1cc(OCc2cncc(C#N)c2)c(CNCC2CCC(=O)N2C)cc1Cl (stereo partly shown)	5 to 500 nM
CCOc1cc(O[C@H]2CCc3c(-c4cccc(OCCCNC(C)(C)C)c4C)cccc32)c(Cl)cc1CN1CC(C(=O)O)C1	5 to 500 nM
CCOc1cc(O[C@H]2CCc3c(-c4cccc(OCCCN5CCCC5(C)C)c4C)cccc32)c(Cl)cc1CN(C[C@@H]1CCC(=O)N1)C(C)C	5 to 500 nM
CN1CC(COc2cccc(-c3cccc4c3CC[C@@H]4Oc3cc(OCc4cncc(C#N)c4)c(CN[C@H]4CCC(=O)NC4)cc3Cl)c2Cl)CC1=O (stereo partly shown)	5 to 500 nM
Cc1c(OCCCN2CCC(F)CC2)cccc1-c1cccc2c1CC[C@@H]2Oc1cc(OCc2cncc(C#N)c2)c(CN2CC(S(N)(=O)=O)C2)cc1Cl	5 to 500 nM
CCOc1cc(O[C@H]2CCc3c(-c4cccc(OCCCN5CCC5(C)C)c4C)cccc32)c(Cl)cc1CN[C@H]1CCC(=O)NC1	5 to 500 nM
CCOc1cc(O[C@H]2CCc3c(-c4cccc(OCCCN5CCC5(C)C)c4C)cccc32)c(Cl)cc1CNC[C@@H]1CCC(=O)N1	< 5 nM

SMILES	IC50
CCOc1cc(O[C@H]2CCc3c(-c4cccc(OCCCN5CCC5(C)C)c4C)cccc32)c(Cl)cc1CN1CCC1(C)C	5 to 500 nM
CCOc1cc(O[C@H]2CCc3c(-c4cccc(OCCCN5CCOCC5)c4C)cccc32)c(Cl)cc1CN1CC(C)(C(=O)O)C1	5 to 500 nM
CCOc1cc(O[C@H]2CCc3c(-c4cccc(OCCCN5CCC5(C)C)c4C)cccc32)c(Cl)cc1CN1CC(C(=O)O)C1	5 to 500 nM
CCOc1cc(O[C@H]2CCc3c(-c4cccc(OCCCN5CCC5(C)C)c4C)cccc32)c(Cl)cc1CN1CC(C)(C(=O)O)C1	5 to 500 nM
Cc1c(OCCCN2CC[C@@H](F)C[C@@H]2C)cccc1-c1cccc2c1CC[C@@H]2Oc1cc(OCc2cc(C#N)cc(C#N)c2)c(CN[C@H]2CCC(=O)NC2)cc1Cl	5 to 500 nM
CCOc1cc(O[C@H]2CCc3c(-c4cccc(OCCCN5CCC5(C)C)c4C)cccc32)c(Cl)cc1CNC[C@H]1CCC(=O)N1	5 to 500 nM
CCOc1cc(O[C@H]2CCc3c(-c4cccc(OCCCN5CCC5(C)C)c4C)cccc32)c(Cl)cc1CN1CC(C)(C#N)C1	5 to 500 nM
CCOc1cc(O[C@H]2CCc3c(-c4cccc(OCCCN5CCC5(C)C)c4C)cccc32)c(Cl)cc1CN1CC(C#N)C1	5 to 500 nM
CCOc1cc(O[C@H]2CCc3c(-c4cccc(OCCCN5[C@H](C)CC[C@H]5C)c4C)cccc32)c(Cl)cc1CNC[C@@H]1CCC(=O)N1	< 5 nM
CCOc1cc(O[C@H]2CCc3c(-c4cccc(OCCCN5CCC[C@H]5C(C)C)c4C)cccc32)c(Cl)cc1CNC[C@@H]1CCC(=O)N1	5 to 500 nM
CCOc1cc(O[C@H]2CCc3c(-c4cccc(OCCCN5CCC[C@@H]5C(C)C)c4C)cccc32)c(Cl)cc1CNC[C@@H]1CCC(=O)N1	< 5 nM
CCOc1cc(O[C@H]2CCc3c(-c4cccc(OCCCN(C)C(C)(C)C)c4C)cccc32)c(Cl)cc1CNC[C@@H]1CCC(=O)N1	< 5 nM
CCOc1cc(O[C@H]2CCc3c(-c4cccc(OCCCN5CCC5(C)C)c4C)cccc32)c(Cl)cc1CNCC1CCC(=O)N1C (stereo partly shown)	5 to 500 nM
CCOc1cc(O[C@H]2CCc3c(-c4cccc(OCCCN5CCC5(C)C)c4C)cccc32)c(Cl)cc1CN1CC(CC)(C(=O)O)C1	5 to 500 nM
CCOc1cc(O[C@H]2CCc3c(-c4cccc(OCCCN(C)C(C)C)c4C)cccc32)c(Cl)cc1CNC[C@@H]1CCC(=O)N1	< 5 nM
CCOc1cc(O[C@H]2CCc3c(-c4cccc(OCCCN5CCCCC5(C)C)c4C)cccc32)c(Cl)cc1CNC[C@@H]1CCC(=O)N1	5 to 500 nM
CCOc1cc(O[C@H]2CCc3c(-c4cccc(OCCCN5C(C)CC5(C)C)c4C)cccc32)c(Cl)cc1CNC[C@@H]1CCC(=O)N1 (stereo partly shown)	< 5 nM
CCOc1cc(O[C@H]2CCc3c(-c4cccc(OCCCN5CCC5C(C)(C)C)c4C)cccc32)c(Cl)cc1CNC[C@@H]1CCC(=O)N1 (stereo partly shown)	5 to 500 nM
CCOc1cc(O[C@H]2CCc3c(-c4cccc(OCCC(C)(C)N)c4C)cccc32)c(Cl)cc1CNC[C@@H]1CCC(=O)N1	5 to 500 nM
CCOc1cc(O[C@H]2CCc3c(-c4cccc(OCCC(C)(C)N)c4C)cccc32)c(Cl)cc1CN[C@H]1CCC(=O)NC1	5 to 500 nM
CCOc1cc(O[C@H]2CCc3c(-c4cccc(OCCCN5CCC5(C)C)c4C)cccc32)c(Cl)cc1CNCCO	< 5 nM
CCOc1cc(O[C@H]2CCc3c(-c4cccc(OCCCN5CCC5(C)C)c4C)cccc32)c(Cl)cc1CNCC(C)(C)CO	5 to 500 nM

SMILES	IC50
CCOc1cc(O[C@H]2CCc3c(-c4cccc(OCCCN5C(C)CC5C)c4C)cccc32)c(Cl)cc1CNC[C@@H]1CCC(=O)N1 (stereo partly shown)	< 5 nM
CN1CCC(COc2cccc(-c3cccc4c3CC[C@@H]4Oc3cc(OCc4cncc(C#N)c4)c(CN[C@H]4CCC(=O)NC4)cc3Cl)c2Cl)C1=O (stereo partly shown)	5 to 500 nM
CCOc1cc(O[C@H]2CCc3c(-c4cccc(OCCCN5CC(C)(C)C5)c4C)cccc32)c(Cl)cc1CNC[C@@H]1CCC(=O)N1	5 to 500 nM
CCOc1cc(O[C@@H]2c3cccc(-c4cccc(OCCCN5CCC(C)(F)CC5)c4C)c3C[C@@H]2F)c(Cl)cc1CNC[C@@H]1CCC(=O)N1	5 to 500 nM
CCOc1cc(O[C@H]2CCc3c(-c4cccc(OCCCN5CCC5(C)C)c4C)cccc32)c(Cl)cc1CN1CCNC(=O)CC1	5 to 500 nM
CCOc1cc(O[C@H]2CCc3c(-c4cccc(OCCCN5[C@H](C)CC[C@H]5C)c4C)cccc32)c(Cl)cc1CN1CCC(O)CC1	5 to 500 nM
CCOc1cc(O[C@H]2CCc3c(-c4cccc(OCCCN5[C@H](C)CC[C@H]5C)c4C)cccc32)c(Cl)cc1CN1CCC(C(=O)O)CC1	5 to 500 nM
CCOc1cc(O[C@H]2CCc3c(-c4cccc(OCCCN5[C@H](C)CC[C@H]5C)c4C)cccc32)c(Cl)cc1CN1CCC(C(=O)OC)CC1	5 to 500 nM
CCOc1cc(O[C@H]2CCc3c(-c4cccc(OCCCN5[C@H](C)CC[C@H]5C)c4C)cccc32)c(Cl)cc1CN1CCCC[C@@H]1C(=O)O	5 to 500 nM
CCOc1cc(O[C@H]2CCc3c(-c4cccc(OCCCN5[C@H](C)CC[C@H]5C)c4C)cccc32)c(Cl)cc1CN1CCC[C@H](C(=O)O)C1	5 to 500 nM
CCOc1cc(O[C@H]2CCc3c(-c4cccc(OCCCN5[C@H](C)CC[C@H]5C)c4C)cccc32)c(Cl)cc1CN1CCC[C@@H](C(=O)O)C1	5 to 500 nM
CCOc1cc(O[C@H]2CCc3c(-c4cccc(OCCCN5CCC5(C)C)c4C)cccc32)c(Cl)cc1CN(C)CCC(=O)O	5 to 500 nM
Cc1c(OCCCN2CCC(O)CC2)cccc1-c1cccc2c1CC[C@@H]2Oc1cc(OCc2cncc(C#N)c2)c(CN(C)[C@H](C(=O)O)[C@@H](C)O)cc1Cl	< 5 nM
CN(Cc1cc(Cl)c(O[C@H]2CCc3c(-c4cccc(OCCCN5CC(O)C5)c4Cl)cccc32)cc1OCc1cncc(C#N)c1)[C@@](C)(CO)C(=O)O	< 5 nM
CCOc1cc(O[C@H]2CCc3c(-c4cccc(OCCCN5CCC5(C)C)c4C)cccc32)c(Cl)cc1CN(C)CCC(=O)OC	5 to 500 nM
Cc1c(OCCCN2CCC(F)CC2)cccc1-c1cccc2c1CC[C@@H]2Oc1cc(OCc2cncc(C(N)=O)c2)c(CN(C)CCC(=O)O)cc1Cl	< 5 nM
CCOC(=O)CCN(C)Cc1cc(Cl)c(O[C@H]2CCc3c(-c4cccc(OCCCN5CCC5(C)C)c4C)cccc32)cc1OCC	5 to 500 nM
CCOc1cc(O[C@H]2CCc3c(-c4cccc(OCCCN5CCC5(C)C)c4C)cccc32)c(Cl)cc1CN(C)CCC(=O)OC(C)(C)C	500 to 20000 nM
CCOc1cc(O[C@H]2CCc3c(-c4cccc(OCCCN5CCC5(C)C)c4C)cccc32)c(Cl)cc1CNCCc1nnn[nH]1	5 to 500 nM
CCOc1cc(O[C@H]2CCc3c(-c4cccc(OCCCN5CCC5(C)C)c4C)cccc32)c(Cl)cc1CNCCn1nn[nH]c1=O	5 to 500 nM
